Source: patent US20150284375A1 (AJINOMOTO CO., INC., priority 2012, published 2015)

Target: T1, human TRPA1 (Homo sapiens, UniProt O75762)
T1 construct: expressed in transfected cells; host or cells: Human embryonic kidney-derived 293T cells, transiently transfected with the pcDNA3.1/zeo(+) human TRPA1 plasmid
Test: Measurement of TRPA1 antagonist activity (intracellular calcium increase, FLIPR, allylisothiocyanate stimulation)
Type: cell-based
Details: 293T cells transfected with human TRPA1; allylisothiocyanate 20 μM; concentration for 50% inhibitory rate; read-out: antagonism hTRPA1
Text: Measurement of TRPA1 Antagonist Activity
Human TRPA1 Expression Plasmid
As cDNA encoding human TRPA1 (GenBank accession No. […]), a commercially available product was purchased (manufactured by Kazusa DNA Research Institute, clone No.: pFN21AB7348, item No.: FHC07217). Using this as a template, full-length human TRPA1 gene was amplified using the primer sequences shown below, by reaction using DNA polymerase (manufactured by Stratagene, trade name: PfuUltra High-Fidelity DNA Polymerase).
A recognition site (underlined) of restriction enzyme HindIII was added to the 5′ side, and XbaI site (underlined) was added to the 3′ side, and GTT of the template sequence was changed to termination codon TAG (bold). The obtained double stranded DNA was enzyme-digested with HindIII and XbaI, and introduced into a multicloning site of expression plasmid pcDNA3.1/zeo(+) (manufactured by Invitrogen) to give a human TRPA1 expression plasmid.
Human embryonic kidney-derived 293T cells were cultured in Dulbecco's Modified Eagle Medium containing 10% fetal bovine serum, 10 unit penicillin, and 10 μg streptomycin, plated on a petri dish having a diameter of 10 cm at 3×10^6 cells, and cultured for 24 hr. A medium containing a reduced amount of serum (manufactured by Invitrogen, trade name: OPTI-MEM, 600 μL), a gene insertion reagent (manufactured by Mirus Bio, trade name: Mirus TransIT-293, 18 μL), and human TRPA1 expression plasmid (6 μg) were mixed, the total amount of the mixture was added to the cells on the petri dish to allow for gene transfer. The cells were recovered about 8 hr later, plated on a poly-D-lysine coated 384 well black/clear bottom plate at 7,500-12,000 cells/well, and cultured overnight.
Measurement of Intracellular Calcium Increase
The 384 well plate was recovered, and the medium was removed. A calcium-bonded fluorescent indicator (manufactured by Molecular Device, trade name: Calcium4 Assay Kit, 40 μL) dissolved in assay buffer (1×HBSS, 20 mM HEPES, pH 7.2) was added, and the cells were stained in a 37° C. incubator for 1 hr. The cells were taken out at room temperature and left standing for 15 min or more. A test substance (10 μL) was added by a 384 well type dispenser, and the mixture was incubated at room temperature for 10 min. Then, allylisothiocyanate (12.5 μL) at a final concentration of 20 μM was added by a fluorescence imaging plate reader (manufactured by Molecular Device, FLIPR), and changes in the relative fluorescence intensity were measured for 5 min.
Test Substance Preparation
The test substance was dissolved in dimethyl sulfoxide and serially diluted with an assay buffer containing 0.1% bovine serum albumin (1×HBSS, 20 mM HEPES, pH 7.2) to a 5-fold concentration of the evaluation concentration. Allylisothiocyanate, which is a known TRPA1 activator, was dissolved in dimethyl sulfoxide to 100 mM, and further diluted 5-fold (100 μM) of the final concentration, like the test substance.
Calculation of Antagonist Activity
Under the test substance-free conditions, the maximum variation range of the fluorescence intensity before and after allylisothiocyanate stimulation was defined to be 100% activity rate, and the variation range before and after buffer stimulation was defined as 0% activity rate. The activity rate on addition of the test substance was determined, and the numerical value obtained by subtracting the activity rate from 100 was defined to be an inhibitory rate. 1050, which is the concentration of the test substance necessary for reaching the 50% inhibitory rate, was calculated from the sigmoid approximate curve by a spreadsheet software Excel-Fit.

T1 sequence (O75762 whole entry): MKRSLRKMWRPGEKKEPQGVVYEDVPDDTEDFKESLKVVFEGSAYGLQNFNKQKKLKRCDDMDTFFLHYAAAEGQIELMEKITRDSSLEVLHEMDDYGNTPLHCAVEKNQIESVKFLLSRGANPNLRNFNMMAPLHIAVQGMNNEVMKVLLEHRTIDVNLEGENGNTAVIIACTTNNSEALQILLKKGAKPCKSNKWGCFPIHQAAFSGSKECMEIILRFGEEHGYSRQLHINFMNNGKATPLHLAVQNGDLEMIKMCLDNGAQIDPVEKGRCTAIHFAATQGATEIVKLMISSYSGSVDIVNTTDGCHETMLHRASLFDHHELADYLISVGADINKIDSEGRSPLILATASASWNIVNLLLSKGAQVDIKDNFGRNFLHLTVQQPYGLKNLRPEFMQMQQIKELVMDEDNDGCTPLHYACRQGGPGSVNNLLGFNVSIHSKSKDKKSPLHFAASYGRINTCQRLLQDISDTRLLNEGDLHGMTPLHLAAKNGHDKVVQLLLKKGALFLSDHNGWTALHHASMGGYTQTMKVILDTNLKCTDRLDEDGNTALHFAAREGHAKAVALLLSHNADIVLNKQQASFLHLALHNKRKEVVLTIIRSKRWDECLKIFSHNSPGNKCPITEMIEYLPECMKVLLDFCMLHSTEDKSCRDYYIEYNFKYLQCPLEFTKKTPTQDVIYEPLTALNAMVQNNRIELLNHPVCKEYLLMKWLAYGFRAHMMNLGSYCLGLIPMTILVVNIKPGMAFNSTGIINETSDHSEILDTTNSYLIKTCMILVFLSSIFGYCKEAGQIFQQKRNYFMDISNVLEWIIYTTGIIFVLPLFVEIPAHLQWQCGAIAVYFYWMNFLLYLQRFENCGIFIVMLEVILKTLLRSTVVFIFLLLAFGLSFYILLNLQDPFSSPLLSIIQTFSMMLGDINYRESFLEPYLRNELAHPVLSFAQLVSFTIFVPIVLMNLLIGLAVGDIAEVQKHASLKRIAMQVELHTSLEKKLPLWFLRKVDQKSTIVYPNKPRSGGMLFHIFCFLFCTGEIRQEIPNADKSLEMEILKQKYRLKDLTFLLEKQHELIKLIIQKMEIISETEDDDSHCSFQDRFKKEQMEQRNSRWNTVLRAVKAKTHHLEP

Compound | IC50
O=C(NCc1ccc(Oc2ccnc(C(F)(F)F)c2)cc1)[C@@H]1CCCN1S(=O)(=O)c1ccc(Cl)s1 [Example 12, (2S)-1-(5-chlorothiophene-2-sulfonyl)-N-((4-{[2-(trifluoro-methyl)-4-pyridyl]oxy}phenyl)methyl)pyrrolidine-2-carboxamide] | 87 nM
O=C(NCc1ccc(Oc2ccnc(Cl)c2)cc1)[C@@H]1CCCN1S(=O)(=O)c1ccc(Cl)s1 [Example 13, (2S)-N-({4-[(2-chloro-4-pyridyl)oxy]phenyl}methyl)-1-(5-chlorothiophene-2-sulfonyl)pyrrolidine-2-carboxamide] | 180 nM
O=C(NCc1cccc(Oc2ccccc2)c1)[C@@H]1CCCN1S(=O)(=O)c1ccc(Cl)s1 [Example 14, (2S)-1-(5-chlorothiophene-2-sulfonyl)-N-[(3-phenoxyphenyl)methyl]pyrrolidine-2-carboxamide] | 240 nM
O=C(NCc1cccc(Oc2ccc(C(F)(F)F)cc2)c1)[C@@H]1CCCN1S(=O)(=O)c1ccc(Cl)s1 [Example 15, (2S)-1-(5-chlorothiophene-2-sulfonyl)-N-({3-[4-(trifluoro-methyl)phenoxy]phenyl}methyl)pyrrolidine-2-carboxamide] | 15 nM
O=C(NCc1cccc(Oc2ccc(OC(F)(F)F)cc2)c1)[C@@H]1CCCN1S(=O)(=O)c1ccc(Cl)s1 [Example 16, (2S)-1-(5-chlorothiophene-2-sulfonyl)-N-({3-[4-(trifluoro-methoxy)phenoxy]phenyl}methyl)pyrrolidine-2-carboxamide] | 100 nM
O=C(NCc1cccc(Oc2ccc(Cl)cc2)c1)[C@@H]1CCCN1S(=O)(=O)c1ccc(Cl)s1 [Example 17, (2S)-N-{[3-(4-chlorophenoxy)phenyl]methyl}-1-(5-chlorothiophene-2-sulfonyl)pyrrolidine-2-carboxamide] | 120 nM
O=C(NCc1cccc(Oc2ccc(F)cc2)c1)[C@@H]1CCCN1S(=O)(=O)c1ccc(Cl)s1 [Example 18, (2S)-1-(5-chlorothiophene-2-sulfonyl)-N-{[3-(4-fluoro-phenoxy)phenyl]methyl}pyrrolidine-2-carboxamide] | 130 nM
O=C(NCc1cccc(Oc2cccc(C(F)(F)F)c2)c1)[C@@H]1CCCN1S(=O)(=O)c1ccc(Cl)s1 [Example 19, (2S)-1-(5-chlorothiophine-2-sulfonyl)-N-({3-[3-(trifluoro-methyl)phenoxy]phenyl}methyl)pyrrolidine-2-carboxamide] | 80 nM
O=C(NCc1cccc(Oc2cccc(OC(F)(F)F)c2)c1)[C@@H]1CCCN1S(=O)(=O)c1ccc(Cl)s1 [Example 20, (2S)-1-(5-chlorothiophene-2-sulfonyl)-N-({3-[3-(trifluoro-methoxy)phenoxy]phenyl}methyl)pyrrolidine-2-carboxamide] | 71 nM
O=C(NCc1cccc(Oc2cccc(Cl)c2)c1)[C@@H]1CCCN1S(=O)(=O)c1ccc(Cl)s1 [Example 21, (2S)-N-{[3-(3-chlorophenoxy)phenyl]methyl}-1-(5-chloro-thiophene-2-sulfonyl)pyrrolidine-2-carboxamide] | 45 nM
O=C(NCc1cccc(Oc2cccc(F)c2)c1)[C@@H]1CCCN1S(=O)(=O)c1ccc(Cl)s1 [Example 22, (2S)-1-(5-chlorothiophene-2-sulfonyl)-N-{[3-(3-fluoro-phenoxy)phenyl]methyl}pyrrolidine-2-carboxamide] | 56 nM
O=C(NCc1cccc(Oc2ccccc2C(F)(F)F)c1)[C@@H]1CCCN1S(=O)(=O)c1ccc(Cl)s1 [Example 23, (2S)-1-(5-chlorothiophene-2-sulfonyl)-N-({3-[2-(trifluoro-methyl)phenoxy]phenyl}methyl)pyrrolidine-2-carboxamide] | 380 nM
O=C(NCc1ccc(Oc2cccc(C(F)(F)F)c2)c(Cl)c1)[C@@H]1CCCN1S(=O)(=O)c1ccc(Cl)s1 [Example 24, (2S)-1-(5-chlorothiophene-2-sulfonyl)-N-({3-chloro-4-[3-(trifluoro-methyl)phenoxy]phenyl}methyl)pyrrolidine-2-carboxamide] | 140 nM
O=C(NCc1ccc(Oc2cccc(C(F)(F)F)c2)c(F)c1)[C@@H]1CCCN1S(=O)(=O)c1ccc(Cl)s1 [Example 25, (2S)-1-(5-chlorothiophene-2-sulfonyl)-N-({3-fluoro-4-[3-(trifluoro-methyl)phenoxy]phenyl}methyl)pyrrolidine-2-carboxamide] | 130 nM
O=C(NCc1c(F)cc(Oc2cccc(C(F)(F)F)c2)cc1F)[C@@H]1CCCN1S(=O)(=O)c1ccc(Cl)s1 [Example 26, (2S)-1-(5-chlorothiophene-2-sulfonyl)-N-({2,6-difluoro-4-[3-(trifluoro-methyl)phenoxy]phenyl}methyl)pyrrolidine-2-carboximide] | 930 nM
O=C(NCc1ccc(F)c(Oc2ccc(C(F)(F)F)cc2)c1F)[C@@H]1CCCN1S(=O)(=O)c1ccc(Cl)s1 [Example 27, (2S)-1-(5-chlorothiophene-2-sulfonyl)-N-({2,4-difluoro-3-[4-(trifluoro-methyl)phenoxy]phenyl}methyl)pyrrolidine-2-carboxamide] | 220 nM
O=C(NCc1c(F)ccc(Oc2ccc(C(F)(F)F)cc2)c1Cl)[C@@H]1CCCN1S(=O)(=O)c1ccc(Cl)s1 [Example 28, (2S)-N-({2-chloro-6-fluoro-3-[4-(trifluoromethyl)phenoxy]phenyl}methyl)-1-(5-chlorothiophene-2-sulfonyl)pyrrolidine-2-carboxamide] | 1900 nM
O=C(NCc1ccc(Oc2cccc(C(F)(F)F)c2)cc1)[C@@H]1C=CCN1S(=O)(=O)c1ccc(Cl)s1 [Example 29, (2S)-1-(5-chlorothiophene-2-sulfonyl)-N-({4-[3-(trifluoromethyl)phenoxy]phenyl}methyl)-2,5-dihydropyrrole-2-carboxamide] | 140 nM
O=C(NCc1ccc(Oc2cccc(C(F)(F)F)c2)cc1)[C@@H]1CCCN1S(=O)(=O)c1ccc(F)cc1 [Example 30, (2S)-1-(4-fluorophenyl)sulfonyl-N-({4-[3-(trifluoro-methyl)phenoxy]phenyl}methyl)pyrrolidine-2-carboxamide] | 230 nM
O=C(NCc1ccc(Oc2cccc(C(F)(F)F)c2)cc1)[C@@H]1CCN1S(=O)(=O)c1ccc(Cl)s1 [Example 31, (2S)-1-(5-chlorothiophene-2-sulfonyl)-N-({4-[3-(trifluoro-methyl)phenoxy]phenyl}methyl)azetidine-2-carboxamide] | 900 nM
O=C(NCc1cccc(Oc2ccc(C(F)(F)F)cc2)c1)[C@@H]1C=CCN1S(=O)(=O)c1ccc(Cl)s1 [Example 32, (2S)-1-(5-chlorothiophene-2-sulfonyl)-N-({3-[4-(trifluoro-methyl)phenoxy]phenyl}methyl)-2,5-dihydropyrrole-2-carboxamide] | 19 nM
O=C(NCc1cccc(Oc2ccc(C(F)(F)F)cc2)c1)[C@@H]1CCCN1S(=O)(=O)c1ccc(F)cc1 [Example 33, (2S)-1-(4-fluorophenyl)sulfonyl-N-({3-[4-(trifluoro-methyl)phenoxy]phenyl}methyl)pyrrolidine-2-carboxamide] | 56 nM
O=C(NCc1cccc(Oc2ccc(C(F)(F)F)cc2)c1)[C@@H]1CCN1S(=O)(=O)c1ccc(Cl)s1 [Example 34, (2S)-1-(5-chlorothiophene-2-sulfonyl)-N-({3-[4-(trifluoro-methyl)phenoxy]phenyl}methyl)azetidine-2-carboxamide] | 150 nM
O=C(NCc1cccc(Oc2ccc(C(F)(F)F)cc2)c1)C1COCCN1S(=O)(=O)c1ccc(Cl)s1 (stereo not drawn) [Example 35, 4-(5-chlorothiophene-2-sulfonyl)-N-({3-[4-(trifluoro-methyl)phenoxy]phenyl}methyl)morpholine-3-carboxamide] | 810 nM
